Entries after “also recorded” stand apart in the source; their conditions may differ.
Tests used:
[1] = target: T1, DPPIV (Homo sapiens, UniProt P27487); assay: Fluorescent peptide dipeptidyl peptidase activity assay; assay type: biochemical; settings: fluorescent peptide substrate
T1 construct: purchased R&D systems 9168-SE
Experimental: (§1) 100 mM stock of dipeptidyl peptidase substrate (Acetyl-Aka-Gly-Pro-AFC) (Anaspec, cat #AS-24126) was made by resuspending lyophilized substrate in DMSO. On the day of the assay, substrate stock was then diluted 1:1000 in activity assay buffer (50 mM Tris, 1 M NaCl, 1 mg/mL BSA, pH 7.5). A standard curve was generated using rFAP (R&D systems, cat #3715-SE-010) or rDPP4 (R&D systems, cat #9168-SE) and 50 uL of recombinant protein plus 50 uL of substrate was added to each well of a 96 Well Flat Clear Bottom White Polystyrene TC-Treated Microplates (Corning, cat #3903). The plate was incubated for 30 minutes at 37° C. then read on a PerkinElmer EnVision Multimode Plate Reader with 390-400 nm excitation and […] emission wavelengths. To test tumor lysates, 50-100 mg of snap frozen tumors were homogenized in 100-300 uL activity assay buffer using a Kimble Biomasher II closed system tissue grinder (DWK Life Sciences, cat #749625-0020). Protein concentration was determined using Bio-rad protein concentration DC Protein Assay Kit II (Bio-rad, cat #5000112). All samples were diluted to equal protein concentrations using activity assay buffer then added at 50 uL plus 50 uL substrate per well. Final concentration of FAP per well was calculated using the standard curve. Data were compiled and assessed for significance using GraphPad Prism 9 for an unpaired, two-tailed t-test.

[2] = target: T2, FAP (Homo sapiens, UniProt Q12884); assay: as above; assay type: biochemical; settings: fluorescent peptide substrate
T2 construct: purchased R&D systems 3715-SE-010
T2 sequence (Q12884 whole entry): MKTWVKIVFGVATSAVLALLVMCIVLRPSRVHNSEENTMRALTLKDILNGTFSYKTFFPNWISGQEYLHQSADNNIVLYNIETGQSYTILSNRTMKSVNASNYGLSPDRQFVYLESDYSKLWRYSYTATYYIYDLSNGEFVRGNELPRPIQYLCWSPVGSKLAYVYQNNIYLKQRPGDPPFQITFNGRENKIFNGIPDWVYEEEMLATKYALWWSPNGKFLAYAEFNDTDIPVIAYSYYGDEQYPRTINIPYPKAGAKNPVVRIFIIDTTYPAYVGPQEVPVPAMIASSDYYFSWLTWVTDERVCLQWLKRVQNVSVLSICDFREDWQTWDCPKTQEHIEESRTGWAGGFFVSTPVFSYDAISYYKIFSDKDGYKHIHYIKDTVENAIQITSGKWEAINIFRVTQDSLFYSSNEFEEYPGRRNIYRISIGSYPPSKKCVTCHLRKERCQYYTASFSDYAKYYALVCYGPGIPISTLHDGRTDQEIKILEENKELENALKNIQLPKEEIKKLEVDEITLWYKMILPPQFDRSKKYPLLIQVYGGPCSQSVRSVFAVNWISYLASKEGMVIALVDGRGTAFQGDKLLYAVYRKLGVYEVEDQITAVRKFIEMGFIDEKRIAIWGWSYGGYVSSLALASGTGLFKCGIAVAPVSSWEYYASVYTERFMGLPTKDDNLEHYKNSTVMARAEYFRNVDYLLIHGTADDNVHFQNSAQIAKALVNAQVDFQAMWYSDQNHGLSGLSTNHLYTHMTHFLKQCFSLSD
Experimental: as §1

[3] = test system: primary human NK cells; assay: 2D live imaging of primary NK cell migration on EL08.1D2 stromal cells; assay type: cell-based; settings: 10 uM Cpd60 vs vehicle; three donors
Experimental: 2D migration studies were done as previously reported. In brief, EL08.1D2 stromal cells were grown to a confluent monolayer on Lab-Tek chamber slides pre-coated with 0.1% gelatin (Stemcell Technologies). […] Cells were imaged in 96-well ImageLock plates (Essen Bioscience) on the IncuCyte ZOOM Live-Cell Analysis System (Essen Bioscience) at 37° C. every 2 min in the phase-contrast mode (10× objective). Tracking of live cells was done using the manual tracking feature in Volocity or FIJI. Tracks were plotted using the Chemotaxis plugin of FUI. Cells that were in the field of imaging for fewer than two frames were discarded, as were cells which were non-adherent or floating. EL08.1D2 cells were used as de facto fiducial markers to ensure that neither they or the microscope stage was drifting and causing apparent NK cell movement.
Length and displacement measurements were derived directly from tracked cells and graphed using GraphPad software. Velocity data was obtained by dividing the total track length by the time of imaging.
2D migration studies were done as previously reported (31, 32). In brief, EL08.1D2 stromal cells were grown to a confluent monolayer on flat-bottomed 96 well ImageLock plates (Essen Bioscience) pre-coated with 0.1% gelatin (Stemcell Technologies). […] Freshly isolated human NK cells were imaged in 96-well on the IncuCyte ZOOM Live-Cell Analysis System (Essen Bioscience) at 37° C. every 2 min in the phase-contrast mode (10× objective). Tracking of live cells was done using the manual tracking feature in Fiji (33). Tracks were plotted using the Chemotaxis plugin of FIJI. Cells that were in the field of imaging for fewer than two frames were discarded, as were cells which were non-adherent or floating. EL08.1D2 cells were used as de facto fiducial markers to ensure that neither they or the microscope stage was drifting and causing apparent NK cell movement. Length and displacement measurements were derived directly from tracked cells and graphed using GraphPad software. Velocity data was obtained by dividing the total track length by the time of imaging.

[4] = test system: PANC-1 cells; assay: NK cell lysis of PANC-1 cells in 2D cocultures; assay type: cell-based, human
[5] = test system: NK cell line

T1 sequence (P27487 whole entry): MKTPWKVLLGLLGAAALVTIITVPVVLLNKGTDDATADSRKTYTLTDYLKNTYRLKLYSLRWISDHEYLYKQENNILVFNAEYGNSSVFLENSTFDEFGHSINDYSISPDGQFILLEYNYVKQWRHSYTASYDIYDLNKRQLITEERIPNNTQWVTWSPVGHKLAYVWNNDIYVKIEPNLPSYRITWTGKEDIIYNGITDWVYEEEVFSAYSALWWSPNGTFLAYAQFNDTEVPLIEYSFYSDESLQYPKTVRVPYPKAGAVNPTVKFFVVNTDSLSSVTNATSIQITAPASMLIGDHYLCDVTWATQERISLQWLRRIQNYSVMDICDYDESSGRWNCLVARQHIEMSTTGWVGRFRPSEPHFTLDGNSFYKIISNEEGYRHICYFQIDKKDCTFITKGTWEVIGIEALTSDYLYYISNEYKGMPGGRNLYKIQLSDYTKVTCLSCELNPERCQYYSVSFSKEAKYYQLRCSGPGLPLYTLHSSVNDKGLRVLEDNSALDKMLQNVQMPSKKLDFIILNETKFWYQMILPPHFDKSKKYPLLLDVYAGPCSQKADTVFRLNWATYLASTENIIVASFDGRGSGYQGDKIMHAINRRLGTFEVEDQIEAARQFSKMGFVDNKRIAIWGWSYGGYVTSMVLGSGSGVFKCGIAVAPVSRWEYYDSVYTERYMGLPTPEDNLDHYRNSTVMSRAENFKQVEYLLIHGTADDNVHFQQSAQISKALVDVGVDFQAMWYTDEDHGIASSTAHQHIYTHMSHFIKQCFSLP

N#C[C@@H]1CC(F)(F)CN1C(=O)CNC(=O)c1ccnc2ccccc12 [Cpd60]
inhibition of DPPIV dipeptidyl peptidase activity [1]: but not FAP's most closely related protein, DPPIV; also recorded: not DPPIV | inhibition of FAP dipeptidyl peptidase activity [2]: inhibits FAP | Euclidian distance traveled by NK cells [3]: no significant impact | NK cell velocity [3]: significantly reduced | accumulated distance traveled by NK cells [3]: significantly reduced | PANC-1 cell apoptosis in 2D cell cocultures with NK92 [4]: no effect | effect on NK cell viability [5]: no effect

From US20240115670A1, “FIBROBLAST ACTIVATION PROTEIN MODULATION TO ALTER IMMUNE CELL MIGRATION AND TUMOR INFILTRATION” (Georgetown University, priority 2021, published 2024)
